Assays:
Cxcl2 = settings: exogenous CFH; cited from earlier work
[1] = tested on: ear hole injury in WT and CXCR2-KO mice; assay: Ear hole closure with topical imiquimod 5% cream; format: in vivo
Description: For ear wounding, a standard 2 mm mechanical punch (Roboz, Gaithersburg, MD) was used to create a hole in the center of each outer ear (pinna). Ear hole diameter was measured using a dissection microscope (Nikon) in the horizontal and vertical directions on a weekly basis. Ears were excluded if there were signs of wound infection, tearing of the ear, or abnormal geometric shape. These criteria were pre-established. For the antibiotic experiments, the same protocol as previously published was used (11).
To assess whether the CXCR2-mediated pathway utilized the same molecular mechanism, […] imiquimod 5% cream was rubbed on skin 5 days per week, beginning one week prior to ear hole injury in WT and CXCR2-KO mice. […] Imiquimod-treated CXCR2-KO mice achieved complete ear hole closure at a 90% frequency, which was >2-fold higher than CXCR2-KO mice (FIG. 9B, bottom graphs). Indeed, this 90% complete closure rate in imiquimod-treated CXCR2-KO mice is greater than the individual imiquimod or CXCR2 components combined.

[2] = tested on: stented back wounds on WT mice; assay: Stented back wound model; format: in vivo
Description: (§1) Next, recombinant G-CSF or PBS (control) was injected daily into the wound beds of WT mice undergoing WIHN for the first 3 days (FIG. 4D). […] This experiment was repeated in the stented back wound model. G-CSF-treated mice healed with >3-fold less scar formation compared to control mice (FIG. 4E). […] Taken together, exogenous G-CSF is sufficient to reduce scar formation and to promote complete tissue regeneration.
(§2) In our single-cell datasets, neutrophils and macrophages were the primary cell types in injured skin to express the G-CSF receptor (Csfr3) (FIG. 8D). […] Immunofluorescence confirmed that macrophages in WT and CXCR2-KO injured skin expressed the G-CSF receptor (FIG. 8E). […] Moreover, wounded tissue was collected at day 4 after injury in the stented back wound model from G-CSF-treated or PBS-treated WT mice. […] Taken together, G-CSF reduces scar formation and promotes tissue regeneration through polarization of infiltrating macrophages into an anti-inflammatory phenotype.
6 mm disposable biopsy punch (Acuderm) was used to make two circular full thickness wounds on the dorsal back skin of mice. Silicon wound splints (Grace Bio-Labs) were sutured with 4-0 Nylon to prevent skin contracture. Wounds were dressed with a sterile occlusive dressing and monitored daily. Borders were monitored by frequently application of permanent marker.
Standard histology and immunostaining protocols were performed, and investigators were blinded during histologic staining. 4% paraformaldehyde was used as the fixative. Briefly, immunohistochemical analysis was performed on 5-10 μm-thick sections of mouse skin. The following primary antibodies were used: rabbit monoclonal anti-Arginase-1 (93668, Cell Signaling Technology), rabbit polyclonal anti-CD80 (8679, ProSci), rabbit polyclonal anti-Histone H3 (ab5103, Abcam), goat polyclonal anti-MPO (AF3667, R&D Systems), Goat polyclonal anti-CD206 (AF2535, R&D Systems), rabbit monoclonal anti-F4/80 (70076, Cell Signaling Technology), rabbit polyclonal anti-COX2 (ab15191, Abcam), rabbit anti-iNOS (2982, Cell Signaling Technology), rabbit polyclonal anti-GCSFR (bs-2574R, Bioss) rabbit monoclonal anti-CD163 (68922, Cell Signaling Technology) and rat anti-Ly6G (551459, BD Pharmingen). […] After staining, images were directly analyzed using a Leica Microsystems DM6 B microscope equipped with a DFC9000 Camera or Keyence imaging system. […] Immunofluorescent images were analyzed using FIJI (40). The signal for the protein of interest was calculated as the percent area occupied by the cells positive for the protein of interest within the tissue section.
The paraffin sections were first de-waxed and hydrated. […] The acquired images were analyzed for fibrosis by quantifying the percent of collagen 1 (PSR) signal within the wounded tissue region. […]

[3] = tested on: bone-marrow derived monocytes; assay: In vitro polarization of bone-marrow derived monocytes (bulk RNA-seq gene expression); format: cell-based, mouse; settings: monocytes treated with and without G-CSF, gene expression levels (FPKM)
From the text: as §2
Monocytes were lysed immediately by adding TRIzol LS reagent. The samples were vortexed for 20 seconds, 0.2×volumes of chloroform was added, tubes were mixed by inverting and samples were centrifuged at 13,000 rpm at 4° C. for 15 min. The aqueous phase was then purified and the RNA-seq library were made using NEBNext® Low Input RNA Library Prep Kit (E6420S/L), following the manufacturer's instructions.
Fastq files were aligned to the mm10 reference genome using STAR_2.4.0 in basic two Pass mode using the “Encode” options as specified in the manual. Reads overlapping with annotated genes (Ensembl build mm10) were counted using the summarizeOverlaps function from the R package “GenomicAlignments” in strand-specific, paired-end mode. […]

[4] = tested on: epidermolysis bullosa patients; settings: systemic G-CSF; cited from earlier work
WT mice undergoing WIHN = assay: Wound induced hair neogenesis (WIHN), injection into the wound bed; format: in vivo; settings: recombinant G-CSF vs PBS injected daily into wound beds of WT mice for the first 3 days
Description: To assess whether the circulating factor(s) was a cell or protein, plasma from CXCR2-KO and WT (control) mice was collected and injected daily into the wound beds of WT mice undergoing WIHN for the first 3 days after injury (FIG. 4B). The WIHN model was used because the wound bed was more accessible. […] Thus, a circulating protein in CXCR2-KO plasma improves tissue regeneration.
as §1
1-cm^2 full-thickness skin wounds were made as previously described (10). 5-weeks later, de novo hair follicles were identified by whole-mount alkaline phosphatase staining of dermis preparations as previously described.

Question: Which results are given for complement factor H [CFH]?
Answer: fibroblast-specific expression of Cxcl2 (Cxcl2): reduces fibroblast-specific expression of Cxcl2; macrophage recruitment (Cxcl2): no changes in macrophage recruitment; neutrophil recruitment (Cxcl2): reduced neutrophil recruitment; tissue regeneration (Cxcl2): partial tissue regeneration

Question: Which results are given for CC(C)Cn1cnc2c(N)nc3ccccc3c21 [Imiquimod, imiquimod]?
Answer: ear hole closure ([1]; imiquimod 5% cream on skin 5 days per week from one week prior to injury, vs control-treated mice): closed their ear holes even more efficiently than control-treated mice; frequency of complete ear hole closure ([1]; imiquimod-treated CXCR2-KO mice): 90%; complete ear hole closure frequency relative to CXCR2-KO mice ([1]; imiquimod-treated CXCR2-KO mice vs CXCR2-KO mice): > 2 fold

B1: Granulocyte Colony-Stimulating Factor (protein, UniProt P09920 31-208, looked up)
Granulocyte …: VPLVTVSALPPSLPLPRSFLLKSLEQVRKIQASGSVLLEQLCATYKLCHPEELVLLGHSLGIPKASLSGCSSQALQQTQCLSQLHSGLCLYQGLLQALSGISPALAPTLDLLQLDVANFATTIWQQMENLGVAPTVQPTQSAMPAFTSAFQRRAGGVLAISYLQGFLETARLALHHLA
notes: recombinant G-CSF injected into wound beds of WT mice
Question: For B1, which “less scar formation compared to control mice” value ([2]; G-CSF vs PBS, scar size at day 28 after injury) is on record?
Answer: The value was > 3 fold.

Question: What about the “fibrosis in healed skin (picrosirius red staining)” value ([2]; G-CSF-treated WT mice vs control skin) of the same molecule?
Answer: Its value is “less fibrosis than control skin”.

Question: What about the “anti-inflammatory macrophages (Cd163 and Mrc1) in wounded tissue” value ([2]; day 4 after injury, G-CSF-treated vs PBS-treated WT mice) of the same molecule?
Answer: Its value is “more anti-inflammatory macrophages”.

Question: What about the average scar diameter ([2]; histological analysis, G-CSF-treated WT mice (PBS ~1.8 mm)) of the same molecule?
Answer: The average scar diameter was ~0.5 mm.

Question: What about the polarization of monocytes [3] of the same molecule?
Answer: Its polarization of monocytes is “directly polarized in vitro bone-marrow derived monocytes into an anti-inflammatory state”.

Question: What about the “blister counts and wound sizes” value [4] of the same molecule?
Answer: The value was “reduced blister counts and wound sizes”.

Question: What about the “increase in hair follicle regeneration compared to control mice” value (WT mice undergoing WIHN) of the same molecule?
Answer: The value was 5 fold.
